Key:
[1] = DRUGMATRIX: Calcium Channel Type L, Dihydropyridine radioligand binding (ligand: [3H] Nitrendipine); format: cell membranes, Rattus norvegicus, Wistar, Cerebral cortex, Membrane; details: Not Active = under 50% inhibition at 10 µM
[2] = target: T1, 5-hydroxytryptamine receptor 1A (Rattus norvegicus, UniProt P19327); format: cell membranes, CHO-K1, Membrane; details: cho-k1; further: in other assays of this panel Not Active means under 50% inhibition at 10 µM
T1 sequence (P19327 whole entry): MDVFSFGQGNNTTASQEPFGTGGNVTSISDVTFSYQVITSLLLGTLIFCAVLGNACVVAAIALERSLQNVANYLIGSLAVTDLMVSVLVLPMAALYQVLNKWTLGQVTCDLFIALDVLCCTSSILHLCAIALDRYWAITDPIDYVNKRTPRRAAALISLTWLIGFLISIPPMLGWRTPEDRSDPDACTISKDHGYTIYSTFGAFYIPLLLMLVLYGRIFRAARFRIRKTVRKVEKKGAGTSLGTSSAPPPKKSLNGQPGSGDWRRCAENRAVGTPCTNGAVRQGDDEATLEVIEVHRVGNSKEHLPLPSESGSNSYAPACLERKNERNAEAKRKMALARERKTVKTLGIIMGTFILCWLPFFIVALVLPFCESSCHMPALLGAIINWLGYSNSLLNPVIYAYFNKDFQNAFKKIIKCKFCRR

Nitric oxide synthase 1 = Nitric oxide synthase 1 (Rattus norvegicus, UniProt P29476); format: tissue-based, Cerebellum; further: in other assays of this panel Not Active means under 50% inhibition at 10 µM
Chain of Nitric oxide synthase 1 (P29476 whole entry): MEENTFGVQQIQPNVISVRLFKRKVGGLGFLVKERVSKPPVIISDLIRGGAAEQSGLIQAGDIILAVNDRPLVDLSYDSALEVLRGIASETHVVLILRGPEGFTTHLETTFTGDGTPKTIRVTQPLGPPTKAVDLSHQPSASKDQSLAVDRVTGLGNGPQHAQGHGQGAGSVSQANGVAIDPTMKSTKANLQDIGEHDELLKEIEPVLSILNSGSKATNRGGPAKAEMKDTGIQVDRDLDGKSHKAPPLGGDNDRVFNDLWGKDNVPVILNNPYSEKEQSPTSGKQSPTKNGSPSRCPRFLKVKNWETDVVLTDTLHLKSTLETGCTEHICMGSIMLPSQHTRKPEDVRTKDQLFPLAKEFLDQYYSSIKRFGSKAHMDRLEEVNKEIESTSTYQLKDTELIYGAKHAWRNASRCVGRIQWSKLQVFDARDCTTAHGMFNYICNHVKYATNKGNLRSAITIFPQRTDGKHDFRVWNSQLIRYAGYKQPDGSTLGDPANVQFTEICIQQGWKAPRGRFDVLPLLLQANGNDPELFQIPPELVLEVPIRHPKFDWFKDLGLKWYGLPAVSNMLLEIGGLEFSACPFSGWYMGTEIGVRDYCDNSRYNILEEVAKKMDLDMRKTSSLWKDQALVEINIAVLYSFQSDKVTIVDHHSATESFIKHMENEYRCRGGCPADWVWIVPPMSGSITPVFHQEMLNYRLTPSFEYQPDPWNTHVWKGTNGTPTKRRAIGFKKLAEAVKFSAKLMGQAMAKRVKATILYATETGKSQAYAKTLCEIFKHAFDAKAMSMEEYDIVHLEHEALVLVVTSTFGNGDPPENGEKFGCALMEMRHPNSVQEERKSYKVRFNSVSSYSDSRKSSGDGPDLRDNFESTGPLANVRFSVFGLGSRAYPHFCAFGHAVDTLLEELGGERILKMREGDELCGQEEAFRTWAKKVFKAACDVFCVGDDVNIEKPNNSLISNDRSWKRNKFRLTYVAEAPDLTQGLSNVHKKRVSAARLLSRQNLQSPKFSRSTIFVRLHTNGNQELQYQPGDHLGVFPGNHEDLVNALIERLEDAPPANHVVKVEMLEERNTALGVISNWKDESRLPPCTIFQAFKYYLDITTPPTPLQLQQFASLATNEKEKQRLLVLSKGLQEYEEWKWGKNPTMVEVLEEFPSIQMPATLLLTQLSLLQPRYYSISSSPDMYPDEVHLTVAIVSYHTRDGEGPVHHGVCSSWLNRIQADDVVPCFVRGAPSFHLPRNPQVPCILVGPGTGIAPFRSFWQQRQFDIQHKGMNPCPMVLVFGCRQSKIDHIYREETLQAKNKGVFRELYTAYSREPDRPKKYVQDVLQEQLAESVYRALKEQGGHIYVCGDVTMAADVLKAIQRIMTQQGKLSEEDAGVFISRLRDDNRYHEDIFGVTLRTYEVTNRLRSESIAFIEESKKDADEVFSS

Melanocortin receptor 3 = Melanocortin receptor 3 (Homo sapiens, UniProt P41968); format: cell membranes, HEK293, Membrane; details: hek293; further: in other assays of this panel Not Active means under 50% inhibition at 10 µM
Chain of Melanocortin receptor 3 (P41968 whole entry): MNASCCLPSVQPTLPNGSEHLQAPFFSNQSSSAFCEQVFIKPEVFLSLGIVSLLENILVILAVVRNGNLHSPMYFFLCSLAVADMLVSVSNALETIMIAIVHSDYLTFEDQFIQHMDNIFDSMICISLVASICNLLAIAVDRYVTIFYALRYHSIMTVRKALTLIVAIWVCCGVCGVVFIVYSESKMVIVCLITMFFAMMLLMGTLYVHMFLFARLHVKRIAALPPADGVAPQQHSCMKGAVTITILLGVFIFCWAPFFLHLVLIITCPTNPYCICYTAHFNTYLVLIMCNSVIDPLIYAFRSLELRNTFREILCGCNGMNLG

Cytochrome P450 2C19 = Cytochrome P450 2C19 (Homo sapiens, UniProt P33261); details: bti-tn-5b1-4; further: in other assays of this panel Not Active means under 50% inhibition at 10 µM
Chain of Cytochrome P450 2C19 (P33261 whole entry): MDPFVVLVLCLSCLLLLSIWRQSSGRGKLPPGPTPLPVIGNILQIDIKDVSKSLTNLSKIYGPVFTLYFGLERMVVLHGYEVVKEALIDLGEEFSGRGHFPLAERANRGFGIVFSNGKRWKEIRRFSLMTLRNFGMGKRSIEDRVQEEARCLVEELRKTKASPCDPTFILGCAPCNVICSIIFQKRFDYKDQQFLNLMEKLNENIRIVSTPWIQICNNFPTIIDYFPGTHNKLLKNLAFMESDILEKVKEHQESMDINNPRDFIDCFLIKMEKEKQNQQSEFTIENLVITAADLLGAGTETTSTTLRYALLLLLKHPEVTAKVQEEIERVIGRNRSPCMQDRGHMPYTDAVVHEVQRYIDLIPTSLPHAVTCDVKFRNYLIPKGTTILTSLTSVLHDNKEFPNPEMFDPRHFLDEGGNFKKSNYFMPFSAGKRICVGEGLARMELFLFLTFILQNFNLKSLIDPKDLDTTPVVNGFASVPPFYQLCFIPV

[3] = target: T2, Neuropeptide Y receptor type 1 (Homo sapiens, UniProt P25929); format: cell membranes, Membrane; details: sk-n-mc; further: in other assays of this panel Not Active means under 50% inhibition at 10 µM
T2 sequence (P25929 whole entry): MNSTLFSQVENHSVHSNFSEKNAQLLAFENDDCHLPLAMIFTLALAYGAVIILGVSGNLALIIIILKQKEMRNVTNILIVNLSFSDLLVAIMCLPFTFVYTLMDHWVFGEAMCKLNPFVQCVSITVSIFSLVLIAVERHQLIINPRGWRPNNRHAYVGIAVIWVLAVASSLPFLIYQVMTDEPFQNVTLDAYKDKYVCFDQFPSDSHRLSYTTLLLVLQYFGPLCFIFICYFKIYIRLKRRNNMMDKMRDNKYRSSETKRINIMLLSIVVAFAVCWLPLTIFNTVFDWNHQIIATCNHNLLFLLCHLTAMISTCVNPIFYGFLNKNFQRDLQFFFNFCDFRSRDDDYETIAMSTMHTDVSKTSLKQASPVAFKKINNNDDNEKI

O=C(Oc1ccccc1C(=O)O)c1ccccc1O [SALSALATE]
Not Active: IC50 [1] | Ki [1] | IC50 [2] | IC50 (Nitric oxide synthase 1) | IC50 (Melanocortin receptor 3) | IC50 (Cytochrome P450 2C19) | Ki (Cytochrome P450 2C19) | IC50 [3]

O=C(O)c1cn(-c2ccc(F)cc2)c2cc(N3CCNCC3)c(F)cc2c1=O [SARAFLOXACIN]
Not Active: IC50 [1] | Ki [1] | IC50 [2] | IC50 (Nitric oxide synthase 1) | IC50 (Melanocortin receptor 3) | IC50 (Cytochrome P450 2C19) | Ki (Cytochrome P450 2C19) | IC50 [3]

CC(C)NCC(O)c1ccc(NS(C)(=O)=O)cc1 (stereo unspecified) [SOTALOL]
Not Active: IC50 [1] | Ki [1] | IC50 [2] | IC50 (Nitric oxide synthase 1) | IC50 (Melanocortin receptor 3) | IC50 (Cytochrome P450 2C19) | Ki (Cytochrome P450 2C19) | IC50 [3]

O.O.O.O.O.O.[Cl-].[Cl-].[Sr+2] [STRONTIUM CHLORIDE HEXAHYDRATE]
Not Active: IC50 [1] | Ki [1] | IC50 [2] | IC50 (Nitric oxide synthase 1) | IC50 (Melanocortin receptor 3) | IC50 (Cytochrome P450 2C19) | Ki (Cytochrome P450 2C19) | IC50 [3]

O=C1C(CC[S+]([O-])c2ccccc2)C(=O)N(c2ccccc2)N1c1ccccc1 (stereo unspecified) [SULFINPYRAZONE]
Not Active: IC50 [1] | Ki [1] | IC50 [2] | IC50 (Nitric oxide synthase 1) | IC50 (Melanocortin receptor 3) | IC50 (Cytochrome P450 2C19) | Ki (Cytochrome P450 2C19) | IC50 [3]

NC(=O)N1C(=O)/C(=C(\O)c2cccs2)c2cc(Cl)ccc21 [TENIDAP]
Not Active: IC50 [1] | Ki [1] | IC50 [2] | IC50 (Nitric oxide synthase 1) | IC50 (Melanocortin receptor 3) | IC50 (Cytochrome P450 2C19) | Ki (Cytochrome P450 2C19) | IC50 [3]

COc1cc2nc(N3CCN(C(=O)C4CCCO4)CC3)nc(N)c2cc1OC (stereo unspecified) [TERAZOSIN]
Not Active: IC50 [1] | Ki [1] | IC50 [2] | IC50 (Nitric oxide synthase 1) | IC50 (Melanocortin receptor 3) | IC50 (Cytochrome P450 2C19) | Ki (Cytochrome P450 2C19) | IC50 [3]

CN(C/C=C/C#CC(C)(C)C)Cc1cccc2ccccc12 [TERBINAFINE]
Not Active: IC50 [1] | Ki [1] | IC50 [2] | IC50 (Nitric oxide synthase 1) | IC50 (Melanocortin receptor 3) | IC50 (Cytochrome P450 2C19) | Ki (Cytochrome P450 2C19) | IC50 [3]

Cn1c(=O)c2nc[nH]c2n(C)c1=O.O [THEOPHYLLINE]
Not Active: IC50 [1] | Ki [1] | IC50 [2] | IC50 (Nitric oxide synthase 1) | IC50 (Melanocortin receptor 3) | IC50 (Cytochrome P450 2C19) | Ki (Cytochrome P450 2C19) | IC50 [3]

CS(=O)(=O)c1ccc([C@@H](O)[C@@H](CO)NC(=O)C(Cl)Cl)cc1 [THIAMPHENICOL]
Not Active: IC50 [1] | Ki [1] | IC50 [2] | IC50 (Nitric oxide synthase 1) | IC50 (Melanocortin receptor 3) | IC50 (Cytochrome P450 2C19) | Ki (Cytochrome P450 2C19) | IC50 [3]

CCN(CC)CCNC(=O)c1cc(S(C)(=O)=O)ccc1OC [TIAPRIDE]
Not Active: IC50 [1] | Ki [1] | IC50 [2] | IC50 (Nitric oxide synthase 1) | IC50 (Melanocortin receptor 3) | IC50 (Cytochrome P450 2C19) | Ki (Cytochrome P450 2C19) | IC50 [3]

NC1CCN(c2nc3c(cc2F)c(=O)c(C(=O)O)cn3-c2ccc(F)cc2F)C1 (stereo unspecified) [TOSUFLOXACIN]
Not Active: IC50 [1] | Ki [1] | IC50 [2] | IC50 (Nitric oxide synthase 1) | IC50 (Melanocortin receptor 3) | IC50 (Cytochrome P450 2C19) | Ki (Cytochrome P450 2C19) | IC50 [3]

O=C(Nc1ccc(Br)cc1)c1cc(Br)cc(Br)c1O [TRIBROMSALAN]
Not Active: IC50 [1] | Ki [1] | IC50 [2] | IC50 (Nitric oxide synthase 1) | IC50 (Melanocortin receptor 3) | IC50 (Cytochrome P450 2C19) | Ki (Cytochrome P450 2C19) | IC50 [3]

CC(c1cc2ccccc2s1)N(O)C(N)=O (stereo unspecified) [ZILEUTON]
Not Active: IC50 [1] | Ki [1] | IC50 [2] | IC50 (Nitric oxide synthase 1) | IC50 (Melanocortin receptor 3) | IC50 (Cytochrome P450 2C19) | Ki (Cytochrome P450 2C19) | IC50 [3]

MANGANESE CHLORIDE ANHYDROUS
Not Active: IC50 [1] | Ki [1] | IC50 [2] | Ki [2] | IC50 (Nitric oxide synthase 1) | Ki (Nitric oxide synthase 1) | IC50 (Melanocortin receptor 3) | Ki (Melanocortin receptor 3) | IC50 (Cytochrome P450 2C19) | Ki (Cytochrome P450 2C19) | IC50 [3] | Ki [3]

SODIUM ORTHOVANAD
Not Active: IC50 [1] | Ki [1] | IC50 [2] | Ki [2] | IC50 (Nitric oxide synthase 1) | Ki (Nitric oxide synthase 1) | IC50 (Melanocortin receptor 3) | Ki (Melanocortin receptor 3) | IC50 (Cytochrome P450 2C19) | Ki (Cytochrome P450 2C19) | IC50 [3] | Ki [3]

Source: ChEMBL document CHEMBL1909046, “DrugMatrix in vitro pharmacology data”
